Source: patent publication US9568466B2, “In vitro assay for predicting renal proximal tubular cell toxicity” (priority 2012, dated 2017)

Tested on: renal proximal tubule
Experiment: not given
Details: in vivo; cited from earlier work

| Molecule | nephrotoxicity in humans / direct damage of the renal proximal tubule |
| --- | --- |
| NC[C@H]1O[C@H](O[C@H]2[C@H](O)[C@@H](O[C@H]3O[C@H](CO)[C@@H](O)[C@H](N)[C@H]3O)[C@H](N)C[C@@H]2N)[C@H](N)C[C@@H]1O [Compound 2, Tobramycin] | nephrotoxic in humans and damage directly the renal proximal tubule |
| CO[C@H]1/C=C/O[C@@]2(C)Oc3c(C)c(O)c4c(O)c(c(/C=N/N5CCN(C)CC5)c(O)c4c3C2=O)NC(=O)/C(C)=C\C=C\[C@H](C)[C@H](O)[C@@H](C)[C@@H](O)[C@@H](C)[C@H](OC(C)=O)[C@@H]1C [Compound 3, Rifampicin] | nephrotoxic in humans and damage directly the renal proximal tubule |
| COc1ccc(C[C@H](N)C(=O)N[C@H]2[C@@H](O)[C@H](n3cnc4c(N(C)C)ncnc43)O[C@@H]2CO)cc1 [Compound 5, Puromycin] | nephrotoxic in humans and damage directly the renal proximal tubule |
| CC(=O)OCC1=C(C(=O)O)N2C(=O)[C@@H](NC(=O)CCC[C@@H](N)C(=O)O)[C@H]2SC1 [Compound 6, Cephalosporin C] | nephrotoxic in humans and damage directly the renal proximal tubule |
| O=c1[nH]cc(F)c(=O)[nH]1 [Compound 7, 5-Fluorouracil] | nephrotoxic in humans and damage directly the renal proximal tubule |
| O=P1(NCCCl)OCCCN1CCCl (stereo not shown) [Compound 9, Ifosfamide] | nephrotoxic in humans and damage directly the renal proximal tubule |
| C[n+]1ccc(-c2cc[n+](C)cc2)cc1 [Compound 10, Paraquat] | nephrotoxic in humans and damage directly the renal proximal tubule |
| [Ge+4].[O-2].[O-2] [Compound 15, Germanium(IV) oxide] | nephrotoxic in humans and damage directly the renal proximal tubule |
| [Cl][Au] [Compound 16, Gold(I) chloride] | nephrotoxic in humans and damage directly the renal proximal tubule |
| C=CC[C@@H]1/C=C(\C)C[C@H](C)C[C@H](OC)[C@H]2O[C@@](O)(C(=O)C(=O)N3CCCC[C@H]3C(=O)O[C@H](/C(C)=C/[C@@H]3CC[C@@H](O)[C@H](OC)C3)[C@H](C)[C@@H](O)CC1=O)[C@H](C)C[C@@H]2OC [Compound 19, Tacrolimus] | nephrotoxic in humans and damage directly the renal proximal tubule |
| CC1=C2C(=CO[C@H](C)[C@H]2C)C(O)=C(C(=O)O)C1=O [Compound 21, Citrinin] | nephrotoxic in humans and damage directly the renal proximal tubule |
| CCOc1ccc(NC(C)=O)cc1 [Compound 24, Phenacetin] | nephrotoxic in humans, but do not damage directly the renal proximal tubule |
| [Cl-].[Li+] [Compound 28, Lithium chloride] | nephrotoxic in humans, but do not damage directly the renal proximal tubule |
| Cl[C@H]1[C@H](Cl)[C@@H](Cl)[C@@H](Cl)[C@H](Cl)[C@H]1Cl [Compound 29, Lindane] | nephrotoxic in humans, but do not damage directly the renal proximal tubule |
| OCCO [Compound 30, Ethylene glycol] | nephrotoxic in humans, but do not damage directly the renal proximal tubule |
| CC(C)[C@H](N)C(=O)OCCOCn1cnc2c(=O)[nH]c(N)nc21 [Compound 31, Valacyclovir] | nephrotoxic in humans, but do not damage directly the renal proximal tubule |
| CCC[C@@H]1C[C@@H](C(=O)N[C@@H]([C@H]2O[C@H](SC)[C@H](O)[C@@H](O)[C@H]2O)[C@@H](C)O)N(C)C1 [Compound 32, Lincomycin] | nephrotoxic in humans, but do not damage directly the renal proximal tubule |
| NCC(=O)O [Compound 35, Glycine] | non-nephrotoxic in humans |
| C[C@@H]1C[C@H]2[C@@H]3CCC4=CC(=O)C=C[C@]4(C)[C@@]3(F)[C@@H](O)C[C@]2(C)[C@@]1(O)C(=O)CO [Compound 36, Dexamethasone] | non-nephrotoxic in humans |
| COc1ccc2[nH]cc(CCNC(C)=O)c2c1 [Compound 37, Melatonin] | non-nephrotoxic in humans |
| N[C@@H](Cc1ccc(O)c(O)c1)C(=O)O [Compound 38, Levodopa (DOPA)] | non-nephrotoxic in humans |
| N[C@@H](Cc1cc(I)c(Oc2ccc(O)c(I)c2)c(I)c1)C(=O)O [Compound 39, Triiodothyronine] | non-nephrotoxic in humans |
| Gentamicin | nephrotoxic in humans and damage directly the renal proximal tubule |

Tested on: human primary renal proximal tubular cells (HPTC)
Experiment: HPTC exposed to test compound, nuclear staining and F-actin detection, morphology and cell numbers
Details: HPTC isolated from fresh human kidney samples; 0.2 mg/ml; 16 hours

| Molecule | cell numbers (number of cell nuclei) | morphological changes (F-actin) |
| --- | --- | --- |
| Gentamicin | decrease in cell numbers | morphological changes |
